Reference: PubChem BioAssay (NCI)
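Tested at 5 concentrations; 48 h exposure; 96-well plates; endpoints linearly interpolated, else capped at highest concentration. GI50 marks 50% less growth. At the TGI there is no net growth.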

Key:
Assay in all cases: inhibition of tumour cell growth, NCI panel, 48 h
[1] = test system: RXF 393 renal
[2] = test system: HL-60(TB) leukemia
[3] = test system: HCC-2998 colon
[4] = test system: A498 renal
[5] = test system: HT29 colon
[6] = test system: PC-3 prostate
[7] = test system: 786-0 renal
[8] = test system: HOP-92 NSCLC
[9] = test system: UO-31 renal

| Compound | TGI [1] | TGI [2] | TGI [3] | TGI [4] | TGI [5] | TGI [6] | TGI [7] | TGI [8] | TGI [9] | GI50 [9] | GI50 [1] | GI50 [2] | GI50 [3] | GI50 [5] | GI50 [6] | GI50 [8] |
| --- | --- | --- | --- | --- | --- | --- | --- | --- | --- | --- | --- | --- | --- | --- | --- | --- |
| CSC1(C)C(=O)Nc2c(OCc3ccccc3)cc([N+](=O)[O-])cc21 (centres undefined) | > 100 µM | > 100 µM | > 100 µM | > 100 µM | > 100 µM | > 100 µM | 31 µM | > 100 µM | – | – | – | – | – | – | – | – |
| COc1cccc(C23CCCC(C2)NCC3Br)c1OC (centres undefined) | > 100 µM | – | – | 31.3 µM | > 100 µM | > 100 µM | > 100 µM | > 100 µM | > 100 µM | – | – | – | – | – | – | – |
| COc1cc(C2C3=C(COC3=O)Oc3cc4c(cc32)OCO4)ccc1O (centres undefined) | > 100 µM | – | 6.34 µM | > 25.7 µM | 37.9 µM | > 83.2 µM | > 100 µM | > 78.1 µM | – | – | – | – | – | – | – | – |
| NS(=O)(=O)c1nnc(NC(=O)C23CC4CC(CC(C4)C2)C3)s1 | > 100 µM | – | > 100 µM | > 100 µM | – | – | > 100 µM | > 100 µM | > 100 µM | – | – | – | – | – | – | – |
| OC1c2ccccc2CCC1CN1CCN(CCOC(c2ccc(F)cc2)c2ccc(F)cc2)CC1 (centres undefined) | 19.3 µM | – | 18.9 µM | 26.9 µM | – | > 100 µM | 25 µM | 24.4 µM | – | – | – | – | – | – | – | – |
| N#CC(N=Nc1ccccc1C(=O)O)C(N)=O (centres undefined) | > 100 µM | > 100 µM | – | – | > 100 µM | > 100 µM | > 100 µM | – | > 100 µM | – | – | – | – | – | – | – |
| COC(=O)C1CCN(C(=O)OC(C)(C)C)CC1 | – | > 100 µM | > 100 µM | > 100 µM | > 100 µM | > 100 µM | > 100 µM | > 100 µM | > 100 µM | – | – | – | – | – | – | – |
| C1CSCCSCCCSC2CCCCC2SC1 (centres undefined) | – | 95.3 µM | > 100 µM | – | 60.9 µM | > 100 µM | > 100 µM | > 100 µM | > 100 µM | – | – | – | – | – | – | – |
| Nc1ccc2[nH]c(-c3cccc(C(F)(F)F)c3)cc(=O)c2c1 | – | – | > 100 µM | 82.9 µM | > 100 µM | 97.7 µM | > 100 µM | > 100 µM | > 100 µM | – | – | – | – | – | – | – |
| CSC1NC(c2ccccc2)=C(C#N)C(=O)N1C1OCC(OC(C)=O)C(OC(C)=O)C1OC(C)=O (centres undefined) | > 100 µM | – | > 100 µM | > 100 µM | > 100 µM | > 100 µM | > 100 µM | > 100 µM | > 100 µM | – | – | – | – | – | – | – |
| COCCN(CCNC(=O)c1cccc2c(N)c3cccc(C)c3nc12)CCOC | 5.96 µM | – | 1.72 µM | 14.6 µM | 10.2 µM | 8.9 µM | 8.62 µM | > 57.7 µM | – | – | – | – | – | – | – | – |
| CC1(c2sccc2Cl)CC(c2sccc2Cl)=C(C#N)C(=C(C#N)C#N)N1 (centres undefined) | 42.4 µM | > 100 µM | 29.4 µM | 33.3 µM | 54.6 µM | 32.8 µM | 34.5 µM | – | – | – | – | – | – | – | – | – |
| CC(O)C1(CNc2cc(Cl)nc(N)n2)CCCCC1 (centres undefined) | > 100 µM | > 100 µM | – | > 100 µM | > 100 µM | > 100 µM | > 100 µM | > 100 µM | > 100 µM | – | – | – | – | – | – | – |
| COc1ccc(OC)c(NCC(=O)Nn2cnc3ccc(S(=O)(=O)Nc4cc(OC)ccc4OC)cc3c2=O)c1 | – | 43.1 µM | > 100 µM | – | > 100 µM | > 100 µM | > 100 µM | > 100 µM | > 100 µM | – | – | – | – | – | – | – |
| O=C(CN(C(=O)OC12CC3CC(CC(C3)C1)C2)C(=O)OC12CC3CC(CC(C3)C1)C2)Oc1ccc([N+](=O)[O-])cc1 | > 100 µM | – | > 100 µM | – | > 100 µM | > 100 µM | > 100 µM | > 100 µM | > 100 µM | – | – | – | – | – | – | – |
| CC1CN=C(NS(=O)(=O)c2cc(C(=O)Nc3ccc(Cl)cc3)c(Cl)cc2S)NN1 (centres undefined) | – | > 100 µM | 49.1 µM | 37.1 µM | > 100 µM | 94 µM | > 100 µM | – | > 100 µM | – | – | – | – | – | – | – |
| CCOP(=O)(OCC)/C(C#N)=C/c1cccn1C(C)C | > 100 µM | – | > 100 µM | > 100 µM | > 100 µM | > 100 µM | > 100 µM | > 100 µM | > 100 µM | – | – | – | – | – | – | – |
| Cc1c(C)c(C)c(Cn2[nH]c(=O)n(C)c2=O)c(C)c1C | – | > 100 µM | > 100 µM | > 100 µM | > 100 µM | > 100 µM | > 100 µM | > 100 µM | > 100 µM | – | – | – | – | – | – | – |
| Cc1cc(S(=O)(=O)N2CCNNC2=O)c(S)cc1Cl | 40.9 µM | > 100 µM | > 100 µM | > 100 µM | – | > 100 µM | 43 µM | > 100 µM | > 100 µM | – | – | – | – | – | – | – |
| CCCCn1c(CSc2ccc(Cl)cc2)c(C(=O)OCC)c2cc(OC)c(Br)cc21 | – | > 100 µM | > 100 µM | > 100 µM | – | > 100 µM | > 100 µM | – | > 100 µM | – | – | – | – | – | – | – |
| COc1cc(C(=O)O[C@H](C(=O)NCCCNC(=O)[C@@H](OC(=O)c2cc(OC)cc3c(C)cccc23)[C@]2(C)CO2)[C@]2(C)CO2)c2cccc(C)c2c1 | < 0.01 µM | < 0.01 µM | 0.224 µM | 1.83 µM | – | 0.477 µM | – | 0.15 µM | > 100 µM | 0.705 µM | < 0.01 µM | < 0.01 µM | < 0.0198 µM | < 0.0121 µM | < 0.0367 µM | < 0.0113 µM |
| CCOC(=O)C(NC(=O)c1ccccc1)(Nc1ccc(S(=O)(=O)Nc2ncccn2)cc1)C(F)(F)F (centres undefined) | > 100 µM | > 100 µM | > 100 µM | – | > 100 µM | > 100 µM | > 100 µM | > 100 µM | > 100 µM | – | – | – | – | – | – | – |
| Clc1cccc(-c2sc(-c3ccsc3)cc2Cc2ccsc2)c1 | > 10 µM | > 10 µM | > 10 µM | – | > 10 µM | > 10 µM | > 10 µM | > 10 µM | – | – | – | – | – | – | – | – |
| CC(=O)Oc1cc(S(=O)(=O)Nc2n[nH]c(Nc3ccc(C)cc3)n2)c(S)cc1Cl | – | > 100 µM | – | > 100 µM | > 100 µM | > 100 µM | > 100 µM | > 100 µM | > 100 µM | – | – | – | – | – | – | – |
| COC(=O)c1c(C(=O)OC)c2ccccn2c1-c1cc(OC)c(Br)c(=O)o1 | > 100 µM | > 100 µM | > 100 µM | > 100 µM | > 100 µM | > 100 µM | > 100 µM | – | > 100 µM | – | – | – | – | – | – | – |
| CCOC(=O)CC(c1ccccc1)C(C)(C(=O)OCC)C(=O)OCC (centres undefined) | 60.9 µM | > 100 µM | > 100 µM | – | > 100 µM | > 100 µM | > 100 µM | – | > 100 µM | – | – | – | – | – | – | – |
